According to patent US8987294B2, “Small molecule inhibitors of the α4-paxillin interaction” (The Regents of the University of California, priority 2009, dated 2015):

Key:
[1] = target: interaction of GIT-1 with paxillin (Homo sapiens, UniProt P49023); test: ELISA, paxillin binding to immobilized Git-1; conditions: read-out: IC50, inhibition of interaction of GIT-1 with paxillin
Description: (§1) Thermo Electron High Binding 96 or 384 well plates were coated with 1 μg/ml neutravidin (Pierce) in 0.05M NaHCO3 pH 9.5 over night at 4° C. After blocking with 1% heat inactivated BSA in PBS for 1 hour at room temperature, plates were incubated with 1 μg/ml of recombinant αIIb-tail or α4-tail FAT or Git-1 in 1% BSA in PBS for one hour at room temperature. Plates were washed twice with 0.2% Tween in PBS to remove unbound protein and incubated with 10 μg/ml HA-tagged leupaxin or paxillin in 0.2% Tween/1% BSA in PBS in the presence or absence of small molecule compounds (5 mM DMSO stock solutions). […] Plates were washed twice and bound leupaxin or paxillin was detected by incubating with the first antibody (12CA5 ascites, 1:10,000 in 0.2% Tween/1% BSA in PBS) for 1 hour at room temperature and then with the secondary antibody (HPR-conjugated anti mouse, Biosource, 1:1,000 in 0.2% Tween, 1% BSA, PBS for 1 hour at room temperature. Binding was quantified after addition of ECL solution on a Victor luminescence plate reader. 0% inhibition control was measured with leupaxin and no compound and 100% inhibition control (background) was measured with no leupaxin and no compound. Each well was duplicated and percent inhibition was averaged. (FIG. 1A)

[2] = target: T1, interaction of leupaxin with α4-integrin (Homo sapiens, UniProt O60711); test: ELISA, leupaxin binding to immobilized α4 tail
T1 construct: Biotinylated α4-integrin cytoplasmic tail was coated to the plates; 6xHis (N); biotin acceptor peptide […]; made in house; host or cells: Escherichia coli
T1 sequence (O60711 1-386): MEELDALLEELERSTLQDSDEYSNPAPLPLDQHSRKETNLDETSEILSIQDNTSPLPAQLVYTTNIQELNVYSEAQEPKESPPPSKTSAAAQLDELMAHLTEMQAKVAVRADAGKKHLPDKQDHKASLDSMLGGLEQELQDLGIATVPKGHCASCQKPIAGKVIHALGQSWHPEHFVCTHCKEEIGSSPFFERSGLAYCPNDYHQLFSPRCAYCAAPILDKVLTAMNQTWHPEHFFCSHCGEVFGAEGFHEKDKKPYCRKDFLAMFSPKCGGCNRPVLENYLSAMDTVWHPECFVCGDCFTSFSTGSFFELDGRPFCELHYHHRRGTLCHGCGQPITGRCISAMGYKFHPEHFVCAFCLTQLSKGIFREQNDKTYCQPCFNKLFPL
Description: as §1
Inhibition of the α4 leupaxin interaction was measured using the above described ELISA assay. Biotinylated α4-integrin cytoplasmic tail was coated to the plates and incubated with increasing concentrations of leupaxin in the presence of different concentrations of inhibitor or no inhibitor. The data were fitted to equations for models of competitive, non-competitive, uncompetitive of mixed inhibition using Graph Pad Prism 5.0 to test which model fits the best.

[3] = tested on: Jurkat T cells expressing a mutated α4-integrin (α4(Y991A)); test: Modified Boyden chamber migration, JB4-Y991A cells; format: cell-based
Description: (§2) Cell migration was assayed in a modified Boyden chamber assay system as described previously (8). For Jurkat T cell migration, transwell (Costar) polycarbonate membranes containing 3-μm pores were coated with 10 μg/ml CS-1, an α4 integrin binding fragment of fibronectin or 20 μg/ml ICAM in 0.1M NaHCO3, pH 8.0 overnight at 4° C. Membranes were blocked with 2% BSA in PBS for 30 minutes at room temperature. 2.0×10^5 Jurkat T cells in RPMI 1640 with 10% fetal bovine serum were added to the top chamber. Stromal-derived factor-1α (SDF-1α, R&D Systems, Minneapolis, Minn.) at a final concentration of 15 ng/ml in RPMI 1640 with 10% fetal bovine serum was added to the bottom chamber. Cells were allowed to migrate for 5 hours at 37° C. Cells in the bottom chamber were enumerated with a hemacytometer. Small molecule inhibitors were added to the top and bottom chamber in the indicated concentrations.

[4] = tested on: Jurkat T cells; test: Spreading assay, Jurkat T cells on CS-1; format: cell-based; conditions: 180 minutes after plating on CS-1
Description: (§3) Cell spreading was performed as described (11, 34). Briefly, CHO cells or Jurkat cells resuspended in Dulbecco's modified Eagle's medium or RPMI 1640, respectively, containing 0.5% fetal bovine serum and 0.2% BSA were plated on coverslips coated with 3 μg/ml GST-CS-1 in 12 well plates in the presence or absence of the small molecule inhibitor. […] The cell area was measured and analyzed using the ImageJ software. At least three independent experiments were performed and in each experiment at least 30 cells were analyzed.

[5] = tested on: Jurkat T cells; test: Modified Boyden chamber migration, Jurkat T cells on ICAM-1 (αLβ2-mediated); format: cell-based
Description: as §2

[6] = tested on: CHO wildtype cells that do not express α4; test: Spreading assay, CHO wildtype cells on fibronectin; format: cell-based, Chinese Hamster; conditions: plated on fibronectin; data not shown
Description: as §3, with “containing 0.5% fetal bovine serum and 0.2% BSA were plated on coverslips coated with 3 μg/ml GST-CS-1 in 12 well plates in the” left out

[7] = tested on: Jurkat T cells; test: Cytotoxicity assay (CellTiter 96 Aqueous One Solution); format: cell-based; conditions: concentrations up to 100 μM for 24 h
Description: The cytotoxicity effect of compounds on cultivated cells was determined using the CellTiter 96® Aqueous One Solution Cell Proliferation Assay (Promega, Madison, Wis.) according to the manufacturer's guidelines.

[8] = tested on: C57B1/6 mice; test: Thioglycollate-induced peritonitis; format: in vivo
Description: Male C57B1/6 mice 5-6 weeks old were injected intraperitoneally with 1 ml sterile 4% (wt/vol) thioglycollate (Sigma-Aldrich). Mice were injected with 16.5 mg/kg 6-B345TTQ, 6-234TTQ or the equal volume of vehicle only every 8-12 hours. At various time points after injection, mice were sacrificed and subjected to peritoneal lavage with 4 ml PBS containing 5 mM EDTA and 1% BSA. Total leukocytes in lavage samples were enumerated with a hemocytometer. Cells (1×10^5) were attached to glass slides with a Cytospin4 instrument (ThermoSharidon) and stained with modified Wright-Giemsa stain. Differential cell counts were performed on 5 individual fields, each containing 100 cells by light microscopy.

[9] = tested on: Jurkat T cells; test: Modified Boyden chamber migration, Jurkat T cells on CS-1; format: cell-based; conditions: Homo sapiens, 5 hours towards SDF-1α, read-out: inhibition of T-cell migration
Description: as §2

[10] = tested on: CHO-S998A cells; test: Spreading assay, CHO-S998A cells on CS-1; format: cell-based, Chinese Hamster; conditions: CS-1 coated cover slips, 45 minutes
Description: as §3

[11] = tested on: THP-1 cells; test: Modified Boyden chamber migration, THP-1 cells on CS-1; format: cell-based; conditions: Homo sapiens, 3 hours, read-out: inhibition of monocyte migration
Description: as §2
THP-1 cells were cultured in RPMI1640 containing 0.1% fetal bovine serum for 16 hours before 1×10^6 cells were added to the top chamber of transwells with CS1-coated membranes that contained 5-μm pores and allowed to migrate for 3 hours towards RPMI containing 0.1% fetal bovine serum.

[12] = target: T2, interaction of FAT with paxillin (Homo sapiens, UniProt P49023); test: ELISA, paxillin binding to immobilized FAT
T2 construct: Recombinant 6×His-FAT, the focal adhesion targeting domain of pp125^FAK; 6xHis (N); made in house; host or cells: E. coli BL21(DE3)pLysS
T2 sequence (P49023 whole entry, the tested form may be a part): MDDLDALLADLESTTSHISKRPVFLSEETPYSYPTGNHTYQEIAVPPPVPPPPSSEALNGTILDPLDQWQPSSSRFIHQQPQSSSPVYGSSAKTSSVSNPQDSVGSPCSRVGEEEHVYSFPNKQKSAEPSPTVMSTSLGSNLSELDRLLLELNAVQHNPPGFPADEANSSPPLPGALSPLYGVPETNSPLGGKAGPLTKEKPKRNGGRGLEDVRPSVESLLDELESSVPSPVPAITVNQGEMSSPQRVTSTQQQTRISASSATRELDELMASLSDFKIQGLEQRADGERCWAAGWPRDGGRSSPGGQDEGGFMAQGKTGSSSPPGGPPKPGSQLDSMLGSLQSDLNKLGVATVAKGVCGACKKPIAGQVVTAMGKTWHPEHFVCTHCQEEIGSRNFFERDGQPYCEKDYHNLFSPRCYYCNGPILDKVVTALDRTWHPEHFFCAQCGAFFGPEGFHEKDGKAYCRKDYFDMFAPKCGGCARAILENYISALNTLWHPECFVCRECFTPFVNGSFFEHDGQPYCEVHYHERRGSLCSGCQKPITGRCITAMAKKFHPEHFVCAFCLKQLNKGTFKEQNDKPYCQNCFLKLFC
Description: as §1

[13] = target: T3, interaction of GIT-1 with leupaxin (Homo sapiens, UniProt O60711); test: ELISA, leupaxin binding to immobilized Git-1; conditions: read-out: IC50, inhibition of interaction of GIT-1 with leupaxin
T3 sequence (O60711 1-386): T1 sequence (O60711 1-386)
Description: as §1

[14] = target: T4, interaction of leupaxin with the focal adhesion targeting sequence of pp125^FAK (FAT) (Homo sapiens, UniProt O60711); test: ELISA, leupaxin binding to immobilized FAT; conditions: concentrations up to 100 μM
T4 construct: Recombinant 6×His-FAT, the focal adhesion targeting domain of pp125^FAK; 6xHis (N); made in house; host or cells: E. coli BL21(DE3)pLysS
T4 sequence (O60711 1-386): T1 sequence (O60711 1-386)
Description: as §1

[15] = target: T5, native paxillin and α4-integrin (Homo sapiens, UniProt P49023); test: Coimmunoprecipitation of α4 with paxillin from Jurkat T cells; format: binding; conditions: anti-biotin blot
T5 construct: endogenous in cells; host or cells: Jurkat T cells
T5 sequence (P49023 whole entry): as the sequence (P49023 whole entry, the tested form may be a part) above
Description: For endogenous Coimmunoprecipitation experiments, Jurkat T-cells were washed in ice-cold PBS and incubated in 1.6 mM Sulfo-NHS-Biotin (Pierce, Chemical Co.) for 30 minutes at room temperature. Excess biotin was quenched and washed from the cells with PBS/Glycine. Cell lysates were then prepared with lysis buffer containing 20 mM Tris, pH 7.4, 150 mM NaCl, 10 mM EDTA, 1% Triton X-100, 0.05% Tween 20 and a protease inhibitor cocktail (Roche Diagnostics Corp.). Lysate containing 200 μg total cell protein was immunoprecipitated using 2 μg rabbit anti paxillin (RB-4358). Immunoprecipitated proteins were separated by SDS-PAGE (8% Bis-Tris, denaturating and reducing) and transferred to nitrocellulose membranes. Precipitated, biotinylated proteins were detected using HRP-Streptavidin (1:10,000).

[16] = target: T6, interaction of paxillin with α4-integrin (Homo sapiens, UniProt P49023); test: ELISA, paxillin binding to immobilized α4 tail; conditions: 10 μg/ml paxillin; read-out: IC50, inhibition of paxillin binding to α4-integrin
T6 construct: 6xHis (N); biotin acceptor peptide […]; made in house; host or cells: Escherichia coli
T6 sequence (P49023 whole entry): as the sequence (P49023 whole entry, the tested form may be a part) above
Description: as §1

Chain of interaction of GIT-1 with paxillin (P49023 whole entry): as the sequence (P49023 whole entry, the tested form may be a part) above

Compound: COc1cc(C2CC(=O)Nc3c2cc(Br)c2ccccc32)cc(OC)c1OC (centres unmarked) [6-B345TTQ]
- IC50 [1]: 2.4 µM
- IC50 ([2]; 10 μg/ml leupaxin, read-out: IC50, inhibition of leupaxin binding to α4-integrin): 18 µM
- nature of inhibition of the α4 leupaxin interaction ([2]; increasing leupaxin, various inhibitor concentrations, model fit Graph Pad Prism 5.0): competitive inhibitor
- α-value of mixed model of inhibition ([2]; mixed model fit): ~2.958×10^12
- residual α4-dependent migration of α4(Y991A) Jurkat T cells [3]: not further decreased
- spreading of Jurkat T cells [4]: dose dependent increase
- effect on αLβ2-mediated Jurkat T cell migration on ICAM-1 [5]: not significantly reduced
- spreading of CHO wildtype cells [6]: not increased
- cytotoxicity (cell viability) [7]: not cytotoxic
- reduction of infiltration of peritoneal monocytes/macrophages ([8]; 16.5 mg/kg every 8-12 hours i.p., 48 hours after thioglycollate): 50%
- recruitment of lymphocytes to the peritoneum ([8]; 16.5 mg/kg every 8-12 hours, 48 hours and 72 hours after thioglycollate): reduction was not statistically significant
- recruitment of neutrophils ([8]; 16.5 mg/kg every 8-12 hours, vs vehicle): no difference
- inhibition at 50 µM [9]: 56.4%
- spreading of CHO-S998A cells [10]: increased the spreading of CHO-S998A cells to a level comparable with CHO-S998D cells
- inhibition at 50 µM [11]: 52.6%
- inhibition of the interaction of FAT with paxillin [12]: did inhibit
- IC50 [13]: 25 µM
- effect on the binding of FAT to leupaxin [14]: no effect
- amount of α4 co-immunoprecipitated with paxillin [15]: decreased with increasing concentrations
- IC50 [16]: 10.8 µM
